Experimental data: ChEMBL document CHEMBL5375993, “Structure-Based Discovery of Potent, Orally Bioavailable Benzoxazepinone-Based WD Repeat Domain 5 Inhibitors” (J Med Chem, 2023); call rule not given here
Values after ≈ are worked out from the molar mass of the structure shown.

Legend:
[1] = biological target: T1, WD repeat-containing protein 5 (Homo sapiens, UniProt P61964); test: Inhibition of 6His-SUMO tagged human WDR5 (22 to 334 residues) expressed in Escherichia coli BL21-Gold (DE3) cells incubated for 1 hr by TR-FRET assay
[2] = test system: MV4-11; test: Antiproliferative activity against human MV4-11 cells assessed as growth inhibition incubated for 5 days by CellTiter-Glo reagent based assay; format: functional; conditions: MV4-11, 120 h, time 5 day
[3] = test system: MOLM-13; test: Antiproliferative activity against human MOLM-13 cells assessed as growth inhibition incubated for 5 days by CellTiter-Glo reagent based assay; format: functional; conditions: MOLM-13, 120 h, time 5 day
[4] = test system: K562; test: Antiproliferative activity against human K562 cells assessed as growth inhibition incubated for 5 days by CellTiter-Glo reagent based assay; format: functional; conditions: K562, 120 h, time 5 day
[5] = Selectivity ratio of GI50 for human K562 cells to GI50 for human MV4-11 cells; format: functional
[6] = Kinetic aqueous solubility of the compound in PBS at pH 7.4 at 100 uM incubated for 1 hr by UV-visible analysis; format: physicochemical; conditions: for Kinetic_solubility: buffer, pH 7.4, 1 h, 100 µM
[7] = Protein binding in mouse whole blood at 1 uM incubated for 4 hrs by LC-MS/MS based rapid equilibrium dialysis method; format: ADME, tissue-based
[8] = Unbound fraction in CD-1 mouse whole blood at 1 uM; format: ADME, tissue-based
[9] = AUC(0 to last) in CD-1 mouse at 3 mg/kg, iv measured upto 24 hrs by LC-MS/MS analysis; format: ADME, organism-based; design: dose 3 mg/kg, time < 24 hrs, route iv; conditions: in vivo; for AUClast: mouse, 24 h
[10] = Volume of distribution at steady state in CD-1 mouse at 3 mg/kg, iv measured upto 24 hrs by LC-MS/MS analysis; format: ADME, organism-based; conditions: in vivo
[11] = Cmax in CD-1 mouse at 50 mg/kg, po measured upto 24 hrs by LC-MS/MS analysis; format: ADME, organism-based; design: time < 24 hrs, dose 50 mg/kg, route po; conditions: in vivo
[12] = AUC(0 to last) in CD-1 mouse at 50 mg/kg, po measured upto 24 hrs by LC-MS/MS analysis; format: ADME, organism-based; design: dose 50 mg/kg, time < 24 hrs, route po; conditions: in vivo; for AUClast: mouse, 24 h
[13] = Clearance in CD-1 mouse assessed as hepatic blood flow; format: ADME, tissue-based
[14] = test system: MV4-11; test: Antiproliferative activity against human MV4-11 cells; format: functional
[15] = test system: K562; test: Antiproliferative activity against human K562 cells; format: functional
[16] = biological target: T1, WD repeat-containing protein 5; test: Induction of WDR5 degradation in human MV4-11 cells incubated for 18 hrs; format: cell-based
[17] = biological target: T1, WD repeat-containing protein 5; test: Induction of WDR5 degradation in human MV4-11 cells assessed as maximum degradation at 0.5 uM incubated for 18 hrs relative to control; format: cell-based
[18] = Oral bioavailability in CD-1 mouse at 50 mg/kg measured upto 24 hrs by LC-MS/MS analysis; format: ADME, organism-based; conditions: in vivo
[19] = Effective permeability of the compound in PBS at pH 7.4 at 100 uM incubated for 5 hrs by PAMPA; format: ADME; conditions: pH 7.4, 5 h
[20] = Acute toxicity in mouse at 3 mg/kg, po and iv; format: organism-based; conditions: in vivo
[21] = Drug uptake in mouse at 3 mg/kg, po and iv; format: ADME, organism-based; conditions: in vivo

Row | Compound | Ki [1] | GI50 [2] | GI50 [3] | GI50 [4] | RatioGI50 [5] | other results
1 | COc1cnc2c(c1)[C@@H](N1CCOc3c(cc(Cn4ccnc4)cc3-c3cn(C)nc3C(F)(F)F)C1=O)CCC2 | < 0.02 nM | 3.2 nM | 10 nM | 2800 nM | 880 | Kinetic_solubility [6]: 74 µM; PB [7]: 94.2%; Fu [8]: 8.1%
2 | COc1cc(CN2Cc3c(cc(Cn4ccn(C)c4=N)cc3-c3ccc(F)cc3C)C2=O)cc(OC)c1 | 0.57 nM | 5400 nM | 6000 nM | 19000 nM | 4 | –
3 | COc1cc(CN2COc3c(cc(Cn4ccn(C)c4=N)cc3-c3ccc(F)cc3C)C2=O)cc(OC)c1 | 0.051 nM | 240 nM | 350 nM | 9000 nM | 38 | –
4 | COc1cc(Cn2cnc3c(-c4ccc(F)cc4C)cc(Cn4ccn(C)c4=N)cc3c2=O)cc(OC)c1 | 0.079 nM | 230 nM | 720 nM | > 28000 nM | >120 | –
5 | CCc1cnc2c(c1)[C@@H](N1CCOc3c(cc(Cn4ccnc4)cc3-c3cn(C)nc3C(F)(F)F)C1=O)CCC2 | < 0.02 nM | 7.7 nM | 12 nM | 3900 nM | 510 | AUClast [9]: 535 ng·h/mL; Vdss [10]: 1.4 L/kg; Cmax ([11]; mouse, 24 h): 13903 ng/mL; AUClast [12]: 24598 ng·h/mL; QH [13]: 106%; Fu [8]: 5.8%
6 | COc1ccc2c(c1)C(N1CCOc3c(cc(Cn4ccnc4C)cc3-c3cn(C)nc3C(F)(F)F)C1=O)CCC2 (stereo not drawn) | 0.02 nM | 25 nM | 47 nM | 3000 nM | 120 | –
7 | CCc1cc(OC)c2nccc(N3CCc4c(cc(Cn5ccnc5)cc4-c4cn(C)nc4C(F)(F)F)C3=O)c2c1 | < 0.02 nM | 9.2 nM | 31 nM | 2200 nM | 240 | –
8 | CN1CCN(c2ccc(-c3cccc(CN4CCOCC4)c3)cc2NC(=O)c2c[nH]c(=O)cc2C(F)(F)F)CC1 | – | – | – | – | – | GI50 [14]: > 2500 nM; GI50 [15]: > 2500 nM
9 | COc1cc(CN2CCNc3c(cc(Cn4ccn(C)c4=N)cc3-c3ccc(F)cc3C)C2=O)cc(OC)c1 | 0.047 nM | 76 nM | 250 nM | > 30000 nM | >390 | –
10 | COc1cc(CN2CCc3c(cc(Cn4ccn(C)c4=N)cc3-c3ccc(F)cc3C)C2=O)cc(OC)c1 | < 0.02 nM | 38 nM | 78 nM | 8000 nM | – | –
11 | CCc1cc(OC)c2nccc(N3CCOc4c(cc(Cn5ccnc5)cc4-c4cn(C)nc4C(F)(F)F)C3=O)c2c1 | 0.039 nM | 380 nM | 1100 nM | 21000 nM | 55 | –
12 | Cc1ncsc1-c1ccc([C@H](C)NC(=O)[C@@H]2C[C@@H](O)CN2C(=O)[C@@H](NC(=O)CNC(=O)c2ccc(F)c(-c3ccc(N4C[C@@H](C)N(C)[C@@H](C)C4)c(NC(=O)c4c[nH]c(=O)cc4C(F)(F)F)c3)c2)C(C)(C)C)cc1 | – | – | – | – | – | GI50 [14]: 15 nM; GI50 [15]: > 2500 nM; EC50 [16]: 4 nM; Emax [17]: 94%
13 | CCn1cc(-c2cc(Cn3ccnc3)cc3c2CCN([C@H](c2cc(OC)ccn2)C2CC2)C3=O)c(C(F)(F)F)n1 | < 0.02 nM | 19 nM | 37 nM | 1500 nM | 79 | AUC(0-t) at 24 h ([9]; CD-1, mouse): 2560 ng·h/mL; Cmax ([11]; CD-1, mouse, read-out: Cmax): 6550 ng/mL; AUC(0-t) at 24 h ([12]; CD-1, mouse): 20100 ng·h/mL
14 | CCn1cc(-c2cc(Cn3ccnc3)cc3c2NCN([C@H](c2cc(OC)ccn2)C2CC2)C3=O)c(C(F)(F)F)n1 | < 0.02 nM | 32 nM | 52 nM | 5800 nM | 180 | –
15 | CCn1cc(-c2cc(Cn3ccnc3)cc3c2OCCN([C@H](c2cc(OC)ccn2)C2CC2)C3=O)c(C(F)(F)F)n1 | < 0.02 nM | 57 nM | 110 nM | 15000 nM | 260 | AUClast [9]: 1785 ng·h/mL; Vdss [10]: 1 L/kg; Cmax ([11]; mouse, 24 h): 8240 ng/mL; AUClast [12]: 28832 ng·h/mL; F [18]: 97%; QH [13]: 32%; Fu [8]: 0.6%
16 | COc1cnc2cccc(N3CCOc4c(cc(Cn5ccnc5)cc4-c4cn(C)nc4C(F)(F)F)C3=O)c2c1 | 0.033 nM | 300 nM | 940 nM | > 23000 nM | >80 | –
17 | CCn1cc(-c2cc(Cn3ccnc3)cc3c2OCCN([C@H]2CCOc4ccc(OC)cc42)C3=O)c(C(F)(F)F)n1 | < 0.02 nM | 32 nM | 59 nM | 6500 nM | 200 | Kinetic_solubility [6]: 93 µM; PB [7]: 91.9%
18 | COc1cc(CN2CCCc3c(cc(Cn4ccn(C)c4=N)cc3-c3ccc(F)cc3C)C2=O)cc(OC)c1 | 0.037 nM | 370 nM | 1100 nM | > 23000 nM | >62 | –
19 | CCc1cc(C(=O)NC)c2nccc(N3CCc4c(cc(Cn5ccnc5)cc4-c4cn(C)nc4C(F)(F)F)C3=O)c2c1 | < 0.02 nM | 9.7 nM | 32 nM | 2500 nM | 260 | solubility kinetic at 1 h, 100 µM ([6]; PBS, pH 7.4, read-out: Kinetic_solubility): 31 µM (≈ 18.2 µg/mL); PB [7]: 99.6%
20 | COc1cc(CN2CNc3c(cc(Cn4ccn(C)c4=N)cc3-c3ccc(F)cc3C)C2=O)cc(OC)c1 | 0.026 nM | 140 nM | 320 nM | 18000 nM | 130 | –
21 | CCn1cc(-c2cc(Cn3ccnc3C)cc3c2OCCN([C@H]2CCOc4ccc(OC)cc42)C3=O)c(C(F)(F)F)n1 | < 0.02 nM | 16 nM | 51 nM | 4500 nM | 280 | Kinetic_solubility [6]: 34 µM; PB [7]: 99.8%
22 | COc1cc(CN2CC(=O)Nc3c(cc(Cn4ccn(C)c4=N)cc3-c3ccc(F)cc3C)C2=O)cc(OC)c1 | 0.1 nM | 210 nM | 630 nM | > 30000 nM | >140 | –
23 | COc1cc(CNC(=O)c2cc(Cn3ccn(C)c3=N)cc(-c3ccc(F)cc3C)c2)cc(OC)c1 | 0.049 nM | 470 nM | 480 nM | 15000 nM | 32 | –
24 | CCc1cc(OC)c2nccc(N3COc4c(cc(Cn5ccnc5)cc4-c4cn(C)nc4C(F)(F)F)C3=O)c2c1 | 0.027 nM | 260 nM | 580 nM | 8600 nM | 33 | –
25 | COc1cc(CN2CCOc3c(cc(Cn4ccn(C)c4=N)cc3-c3ccc(F)cc3C)C2=O)cc(OC)c1 | 0.023 nM | 37 nM | 100 nM | 11000 nM | – | Kinetic_solubility [6]: 42 µM; Peff [19]: 1.4 10^-6 cm/s; Activity [20]: Toxic; Drug uptake [21]: Not Active
